Paper PMC7461116, “Synthesis, Anticonvulsant and Antinociceptive Activity of New Hybrid Compounds: Derivatives of 3-(3-Methylthiophen-2-yl)-pyrrolidine-2,5-dione” (International Journal of Molecular Sciences, 2020)
Counter-ions that a name gives are not always drawn. Like-named read-outs stand apart in the source and are kept apart here.

Legend:
[1] = system: Voltage-Sensitive Na+ Channel (site 2); assay: Radioligand binding, [3H]BTX, Cerep; settings: 100 µM, rat cerebral cortex synaptoneurosomal preparations
Description: (§1) Binding and functional studies were performed commercially in Cerep Laboratories (Poitiers, France) using testing procedures described elsewhere (Na^+ channel-site 2 [27], L-type Ca^2+ channel, dihydropyridine site, TRPV1 (VR1) (h) (antagonist effect), GABA transporter (GAT)). All experiments were performed in duplicate.

[2] = system: latency time to pain reaction; assay: Hot plate test; format: in vivo; settings: mice, ip, 30 mg/kg
Description: The hot plate test was carried out based on the Eddy and Leimbach (1953) method. In this test, the apparatus was equipped with an electrically heated surface with a temperature controller that maintains surface temperature to a set point. Herein, the temperature was set at 55 °C. The animals were treated ip either with the test compounds, or vehicle 30 min before placing the animal on a hot plate apparatus. Latency time to pain reaction, i.e., the time until the animal licked its back paws or jumped was recorded by means of the stopwatch.

[3] = system: Voltage-Sensitive Ca2+ Channel L-type (dihydropyridine site); assay: Radioligand binding, [3H]nitrendipine, Cerep; settings: 100 µM, rat cerebral cortex synaptoneurosomal preparations
Description: as §1

[4] = system: maximal electroshock seizures; assay: Maximal electroshock seizure (MES) test; format: in vivo, mice; settings: for responders at 100 mg/kg / ED50: Mus musculus; for responders at 100 mg/kg / MES: tested animals protected: ip, 0.5 h; for ED50: mice ip, 95% confidence limit in brackets
Description: The MES test was performed as previously described. Stimuli (25 mA, 0.2 s, 50 Hz) were generated by a constant current stimulator (Rodent shocker, Type 221, Hugo Sachs Elektronik, Germany) and delivered with the use of auricular electrodes. During the stimulation, each mouse was restrained manually, and immediately after the stimulation gently released for observation. The endpoint was the tonic extension of the hind limbs. Mice not displaying hindlimb tonic extension were considered to be protected from seizure. The initial anticonvulsant screening of the tested compounds was performed at a fixed dose of 100 mg/kg (four mice per group). […] To evaluate the ED50, at least three groups of animals were injected with various doses of tested compounds. Each group consisted of six animals.

[5] = system: motor impairment on rotarod; assay: Rotarod test (acute neurotoxicity, NT); format: in vivo; settings: ip, 100 mg/kg, 0.5 h
Description: In this test mice were trained to balance on an accelerating rotarod that rotated at 10 rotations per minute (Rotarod apparatus, May Commat RR0711, Turkey; rod diameter: 3 cm). During the training session, the animals were placed on a rotating rod for 3 min with an unlimited number of trials. Proper experiment was conducted 24 h after the training trial. On the test day, trained mice were intraperitoneally pretreated with the test compound at a dose of 100 mg/kg and just before the MES test were tested on the rotarod. Neurotoxicity was indicated by the inability of the animal to maintain equilibration on the rod for 1 min. […] Each group consisted of six animals.

[6] = system: acetic acid-induced writhing behavior; assay: Acetic acid-induced writhing test; format: in vivo; settings: mice, ip, 30 mg/kg
Description: Mice were injected with the test compound or vehicle by intraperitoneally route (ip), and 30 min later, 0.9 % acetic acid solution was injected ip and the animals were placed into the glass beakers. The writhing response (lengthwise stretching of the torso, concave arching of the back, and extension of the hind limbs) was recorded for 30 min. The analgesic effect of the tested substances was determined by a decrease in the number of writhes observed and the results were expressed as percent inhibition of writhing behavior (as index of analgesia), and was calculated using the following formula: %Inhibition=(NA−NB)/NA×100, where NA—number of writhes in vehicle group, NB—number of writhes in drug-treated group.

[7] = Rotarod test (acute neurotoxicity, NT); settings: mouse, in vivo, mice ip
GABA Transporter (GAT) = assay: Radioligand binding, [3H]GABA, Cerep; settings: 100 µM, rat cerebral cortex synaptoneurosomal preparations
Description: as §1

[8] = system: 6 Hz psychomotor seizures; assay: 6 Hz (32 mA) psychomotor seizure test; format: in vivo, mice; settings: for responders at 100 mg/kg / ED50: Mus musculus; for responders at 100 mg/kg / 6 Hz: tested animals protected: ip, 0.5 h; for ED50 / PI (TD50/ED50), 6 Hz: mice ip; for ED50: 95% confidence limit in brackets
From the text: Psychomotor seizures were induced via corneal stimulation (6 Hz, 32 mA, 0.2 ms rectangular pulse width, 3 s duration) using a constant-current device (ECT Unit 57800, Ugo Basile, Italy). A drop of 1% solution of lidocaine hydrochloride was applied to the mouse corneas before stimulation to provide local anesthesia and ensure optimal current conductivity. After the electrical stimulation, mice were gently released and observed for the presence or absence of seizure activity, being characterized by immobility associated with rearing, forelimb clonus, twitching of the vibrissae, stun, and Straub-tail. Lack of the above symptoms or their cessation within 10 s from the stimulation was considered as absence of seizure activity. The initial anticonvulsant screening of the tested compounds was performed at a fixed dose of 100 mg/kg (four mice per group). Then ED50 was calculated for active compounds as described above.

[9] = Hepatotoxicity, PrestoBlue viability assay; format: cell-based, human; settings: human, Hep G2 cells, 1–100 μM, read-out: Hep G2 cell viability
Description: (§2) Hepatotoxicity of tested compounds was assessed in PrestoBlue (Thermo Fisher Scientific, Waltham, MA, USA) Experiments on microplate reader (SpectraMax® iD3, Molecular Devices, San Jose, CA, USA) using human hepatocellular carcinoma cells (Hep G2) ATCC® […]. The cells were cultured in standard conditions (37 °C, 5% CO2), in Dulbecco’s Modified Eagle’s Medium-high glucose, (DMEM, Gibco, Thermo Fisher Scientific, Waltham, MA, USA) supplemented with 10% fetal bovine serum (Thermo Fisher Scientific, Waltham, MA, USA), with added 100 IU/mL penicillin (Sigma Aldrich, Steinheim, Germany) and 100 µg/mL streptomycin (Sigma Aldrich). PrestoBlue reagent is a resazurin-based solution that functions as a cell viability indicator. Metabolically active cells are capable of reducing the PrestoBlue reagent, with the colorimetric changes used as an indicator to quantify the viability of cells in culture. This change can be determined by measuring the fluorescence. After 24 h of incubation with the compounds PrestoBlue reagent was added to wells of a microplate. After 20 min of incubation at 37 °C, the fluorescence intensity (EX 530; EM 580 nm) was measured in a plate reader. Viability values were calculated as a percentage of live cells with respect to the control sample (DMSO). The negative control was medium without cells. Astemizole was used as a reference substance.

[10] = system: PTZ-induced clonic seizures; assay: Subcutaneous pentylenetetrazole (scPTZ) seizure test; format: in vivo; settings: mice, 100 mg/kg
Description: Clonic convulsions were induced by the subcutaneous (sc) administration of PTZ at a dose of 100 mg/kg. After PTZ injection, the mice were placed separately and observed during the next 30 min for the occurrence of clonic seizures. Clonic seizures were defined as clonus of the whole body lasting more than 3 s, with an accompanying loss of righting reflex. The latency to first clonus, the number of seizure episodes, and mortality rate were noted and compared with vehicle-treated and drug-treated groups. The absence of clonic convulsions within the observed time period was interpreted as the compound’s ability to protect against PTZ-induced seizures.

TRPV1 receptor = target: T1, TRPV1 receptor (Homo sapiens, UniProt Q8NER1); assay: TRPV1 (VR1) (h) antagonist effect, Cerep; format: biochemical; settings: 100 µM
T1 construct: Cerep Laboratories (Poitiers, France)
T1 sequence (Q8NER1 whole entry): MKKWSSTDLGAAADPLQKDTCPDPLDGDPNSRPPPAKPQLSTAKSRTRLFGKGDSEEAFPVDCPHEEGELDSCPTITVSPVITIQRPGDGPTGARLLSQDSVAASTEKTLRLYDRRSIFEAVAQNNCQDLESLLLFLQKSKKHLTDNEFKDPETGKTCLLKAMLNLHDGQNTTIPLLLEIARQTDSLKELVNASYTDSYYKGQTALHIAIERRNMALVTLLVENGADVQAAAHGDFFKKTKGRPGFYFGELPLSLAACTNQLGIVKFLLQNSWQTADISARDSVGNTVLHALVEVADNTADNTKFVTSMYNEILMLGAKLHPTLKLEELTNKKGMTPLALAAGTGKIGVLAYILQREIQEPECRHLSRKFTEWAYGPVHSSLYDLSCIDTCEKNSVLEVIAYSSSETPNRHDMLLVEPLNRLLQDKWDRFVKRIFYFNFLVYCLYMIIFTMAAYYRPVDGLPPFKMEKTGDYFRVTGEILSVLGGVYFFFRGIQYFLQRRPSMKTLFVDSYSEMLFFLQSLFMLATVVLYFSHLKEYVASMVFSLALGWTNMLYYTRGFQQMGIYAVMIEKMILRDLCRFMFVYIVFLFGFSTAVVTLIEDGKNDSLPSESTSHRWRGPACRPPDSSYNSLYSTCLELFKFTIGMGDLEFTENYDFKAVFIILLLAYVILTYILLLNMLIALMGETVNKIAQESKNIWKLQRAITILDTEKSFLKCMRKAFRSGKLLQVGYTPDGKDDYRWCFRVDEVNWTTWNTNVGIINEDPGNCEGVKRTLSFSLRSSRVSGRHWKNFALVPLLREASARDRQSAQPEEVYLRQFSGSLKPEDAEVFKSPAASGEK
Description: as §1

Hep G2 cells = assay: Hepatotoxicity, PrestoBlue viability assay; format: cell-based, human; settings: 24 h; for Hepatotoxicity in Hep G2 cells, in words: 1 and 10 μM; for Inhibition of viability of Hep G2 cells: 100 and 50 μM
Description: as §2

[11] = system: maximal electroshock seizures; settings: cited from earlier work
[12] = system: 6 Hz psychomotor seizures; settings: mice ip, reference AEDs, cited from earlier work; for 6 Hz ED50: 32 mA
[13] = read-out: MES: number of mice protected/number of mice tested
[14] = read-out: 6 Hz: number of mice protected/number of mice tested
[15] = mice, 100 mg/kg, read-out: MES: number of mice protected/number of mice tested (converted)
[16] = mice, 100 mg/kg, 32 mA, read-out: 6 Hz: number of mice protected/number of mice tested (converted)

## Cc1ccsc1C1CC(=O)N(CCCN2CCOCC2)C1=O (racemic) [Compound 4, (R,S)-3-(3-Methylthiophen-2-yl)-1-(3-morpholinopropyl)pyrrolidine-2,5-dione hydrochloride]
[1]
  % Inhibition of Control Specific Binding, Voltage-Sensitive Na+ Channel (site 2): 42.1%
[2]
  Hot plate: prolongation of latency time to pain reaction: inactive
[3]
  % Inhibition of Control Specific Binding, Voltage-Sensitive Ca2+ Channel L-typ: 39.7%
[4]; [13]
  responders at 100 mg/kg: 75%
[4]
  ED50: 62.1 mg/kg
[4]; mice, 100 mg/kg
  MES: tested animals protected: 75%
[5]
  NT: number of mice with motor impairment/number of mice tested: 0/4
[6]
  Reduction of number of writhes (inhibition of writhing behavior): 29.8%
[7]
  TD50 at 0.5 h: < 200 mg/kg
GABA Transporter (GAT)
  % Inhibition of Control Specific Binding, GABA Transporter (GAT): −3.2%
[8]; [14]
  responders at 100 mg/kg: 75%
[8]; 32 mA
  ED50: 75.6 mg/kg
[8]
  PI (TD50/ED50), 6 Hz: < 2.65
[8]; mice, 100 mg/kg, 32 mA
  6 Hz: tested animals protected: at least 75%
[9]
  viability at 24 h: > 94%
[10]
  scPTZ: effect in words: no significant effect

## Cc1ccsc1C1CC(=O)N(CCCN2CCN(c3cccc(C(F)(F)F)c3)CC2)C1=O (racemic) [Compound 6, (R,S)-3-(3-Methylthiophen-2-yl)-1-(3-(4-(3-(trifluoromethyl)phenyl)piperazin-1-yl)propyl)pyrrolidine-2,5-dione hydrochloride]
[1]
  % Inhibition of Control Specific Binding, Voltage-Sensitive Na+ Channel (site 2): 96.7%
[2]
  Hot plate: prolongation of latency time to pain reaction: 49%
[3]
  % Inhibition of Control Specific Binding, Voltage-Sensitive Ca2+ Channel L-typ: 69.9%
[4]; [13]
  responders at 100 mg/kg: 25%
[5]
  NT: number of mice with motor impairment/number of mice tested: 4/4
[6]
  Reduction of number of writhes (inhibition of writhing behavior): 27%
[7]
  TD50 at 0.5 h: < 100 mg/kg
TRPV1 receptor
  TRPV1 antagonist effect: 74.8%
[8]; [14]
  responders at 100 mg/kg: 75%
[8]; 32 mA
  ED50: 78.3 mg/kg
[8]
  PI (TD50/ED50), 6 Hz: < 1.28
[8]; mice, 100 mg/kg, 32 mA
  6 Hz: tested animals protected: at least 75%
Hep G2 cells
  Hepatotoxicity in Hep G2 cells, in words: no hepatotoxicity
  Inhibition of viability of Hep G2 cells: 13–28%

## Cc1ccsc1C1CC(=O)N(CCCN2CCN(c3ccc(Cl)c(Cl)c3)CC2)C1=O (racemic) [Compound 9, (R,S)-1-(3-(4-(3,4-Dichlorophenyl)piperazin-1-yl)propyl)-3-(3-methylthiophen-2-yl)pyrrolidine-2,5-dione hydrochloride]
[1]
  % Inhibition of Control Specific Binding, Voltage-Sensitive Na+ Channel (site 2): 78.8%
[2]
  Hot plate: prolongation of latency time to pain reaction: 43%
[3]
  % Inhibition of Control Specific Binding, Voltage-Sensitive Ca2+ Channel L-typ: −9.5%
[4]
  ED50: > 130 mg/kg
[4]; [15]
  responders at 100 mg/kg: 50%
[4]; mice, 100 mg/kg
  MES: tested animals protected: 50%
[5]
  NT: number of mice with motor impairment/number of mice tested: 0/4
[6]
  Reduction of number of writhes (inhibition of writhing behavior): 61.44%
[7]
  TD50 at 0.5 h: > 300 mg/kg
TRPV1 receptor
  TRPV1 antagonist effect: 109.5%
[8]; 32 mA
  ED50: > 130 mg/kg
[8]; [16]
  responders at 100 mg/kg: 50%
Hep G2 cells
  Hepatotoxicity in Hep G2 cells, in words: no hepatotoxicity
  Inhibition of viability of Hep G2 cells: 13–28%

## Cc1ccsc1C1CC(=O)N(CC(=O)N2CCN(c3cccc(Cl)c3)CC2)C1=O (racemic) [Compound 14, (R,S)-1-(2-(4-(3-Chlorophenyl)piperazin-1-yl)-2-oxoethyl)-3-(3-methylthiophen-2-yl)pyrrolidine-2,5-dione]
[4]; [15]
  responders at 100 mg/kg: 0%
[5]
  NT: number of mice with motor impairment/number of mice tested: 0/4
[7]
  TD50 at 0.5 h: > 300 mg/kg
[8]; 32 mA
  ED50: 153 mg/kg
[8]; [16]
  responders at 100 mg/kg: 50%
[10]
  scPTZ: effect in words: no significant effect

## COc1ccc(CCN2CCC(Nc3nc4ccccc4n3Cc3ccc(F)cc3)CC2)cc1 [Astemizole, reference compound]
Hep G2 cells; 1–100 μM
  Hepatotoxicity in HepG2 cells, in words: inhibits the viability of HepG2 cells in a dose-dependent manner

## CCC1(C)CC(=O)NC1=O (stereo not shown) [ETX, ethosuximide]
[11]
  MES: protection in words: did not show protection
[11]; mice ip, reference AEDs
  MES ED50: > 500 mg/kg
[12]
  6 Hz ED50: 221.7 (183.0–268.5) mg/kg
  PI (TD50/ED50), 6 Hz: 3.2 (6 Hz)

## CCCC(CCC)C(=O)O [VPA, valproic acid]
[11]; mice ip, reference AEDs
  PI (TD50/ED50), MES: 1.7
[12]
  6 Hz ED50: 130.6 (117.6–145.2) mg/kg
  PI (TD50/ED50), 6 Hz: 3.3
